Assay [1] has as its target T1, Inhibitor of nuclear factor kappa-B kinase subunit alpha (Homo sapiens) (UniProt O15111).
T1 sequence (whole entry): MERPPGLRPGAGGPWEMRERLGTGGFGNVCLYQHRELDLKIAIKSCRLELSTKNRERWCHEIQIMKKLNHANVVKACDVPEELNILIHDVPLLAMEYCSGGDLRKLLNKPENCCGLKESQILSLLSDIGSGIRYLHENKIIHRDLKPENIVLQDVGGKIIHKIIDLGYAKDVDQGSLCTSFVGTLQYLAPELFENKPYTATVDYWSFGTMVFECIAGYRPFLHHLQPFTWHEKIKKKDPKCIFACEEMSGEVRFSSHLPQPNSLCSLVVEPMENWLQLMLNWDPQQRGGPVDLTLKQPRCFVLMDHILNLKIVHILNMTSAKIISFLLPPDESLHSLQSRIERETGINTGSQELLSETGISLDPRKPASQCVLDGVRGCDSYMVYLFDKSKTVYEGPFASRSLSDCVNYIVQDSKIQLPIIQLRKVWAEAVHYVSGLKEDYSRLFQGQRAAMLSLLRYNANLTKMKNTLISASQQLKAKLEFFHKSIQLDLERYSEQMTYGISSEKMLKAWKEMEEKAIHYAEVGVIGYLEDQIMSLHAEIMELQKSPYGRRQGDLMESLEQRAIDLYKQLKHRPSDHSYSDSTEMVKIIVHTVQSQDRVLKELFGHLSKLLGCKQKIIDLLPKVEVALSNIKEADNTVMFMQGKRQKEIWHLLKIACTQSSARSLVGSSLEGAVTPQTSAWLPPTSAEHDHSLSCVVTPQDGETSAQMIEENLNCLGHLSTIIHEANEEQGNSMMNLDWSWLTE
Particulars: dose 1.82 nM.
Description: Inhibition of human IKKa at 1.82 nM by HotSpot assay relative to control

Assay [2] deals with T2, Dual specificity mitogen-activated protein kinase kinase 6 (Homo sapiens) (UniProt P52564).
T2 sequence (whole entry): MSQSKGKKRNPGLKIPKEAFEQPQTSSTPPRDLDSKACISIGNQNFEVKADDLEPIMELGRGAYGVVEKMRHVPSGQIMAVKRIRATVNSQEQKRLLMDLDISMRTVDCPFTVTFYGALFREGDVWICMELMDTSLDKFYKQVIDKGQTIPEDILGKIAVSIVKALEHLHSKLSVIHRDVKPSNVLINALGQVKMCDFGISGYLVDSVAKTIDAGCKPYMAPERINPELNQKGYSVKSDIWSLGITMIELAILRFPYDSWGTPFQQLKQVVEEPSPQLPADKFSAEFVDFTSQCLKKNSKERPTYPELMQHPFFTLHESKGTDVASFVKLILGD
The assay can be described thus: Inhibition of human MKK6 at 1.82 nM by HotSpot assay relative to control.

Assay [3] has as its target CDK4/Cyclin D3 (Homo sapiens) (UniProt P11802+P30281). Put plainly: Inhibition of human CDK4/cyclin D3 at 1.82 nM by HotSpot assay relative to control. The class given is protein-complex assay.
In assay [4] the target is Calcium/calmodulin-dependent protein kinase type II subunit delta (Homo sapiens) (UniProt Q13557). Put plainly: Inhibition of human CAMK2d at 1.82 nM by HotSpot assay relative to control.
Assay [5] addresses Tyrosine-protein kinase SYK (Homo sapiens) (UniProt P43405). The assay can be described thus: Inhibition of human SYK at 1.82 nM by HotSpot assay relative to control.
For assay [6], the target named is T3, Inhibitor of nuclear factor kappa-B kinase subunit beta (Homo sapiens) (UniProt O14920).
T3 sequence (whole entry): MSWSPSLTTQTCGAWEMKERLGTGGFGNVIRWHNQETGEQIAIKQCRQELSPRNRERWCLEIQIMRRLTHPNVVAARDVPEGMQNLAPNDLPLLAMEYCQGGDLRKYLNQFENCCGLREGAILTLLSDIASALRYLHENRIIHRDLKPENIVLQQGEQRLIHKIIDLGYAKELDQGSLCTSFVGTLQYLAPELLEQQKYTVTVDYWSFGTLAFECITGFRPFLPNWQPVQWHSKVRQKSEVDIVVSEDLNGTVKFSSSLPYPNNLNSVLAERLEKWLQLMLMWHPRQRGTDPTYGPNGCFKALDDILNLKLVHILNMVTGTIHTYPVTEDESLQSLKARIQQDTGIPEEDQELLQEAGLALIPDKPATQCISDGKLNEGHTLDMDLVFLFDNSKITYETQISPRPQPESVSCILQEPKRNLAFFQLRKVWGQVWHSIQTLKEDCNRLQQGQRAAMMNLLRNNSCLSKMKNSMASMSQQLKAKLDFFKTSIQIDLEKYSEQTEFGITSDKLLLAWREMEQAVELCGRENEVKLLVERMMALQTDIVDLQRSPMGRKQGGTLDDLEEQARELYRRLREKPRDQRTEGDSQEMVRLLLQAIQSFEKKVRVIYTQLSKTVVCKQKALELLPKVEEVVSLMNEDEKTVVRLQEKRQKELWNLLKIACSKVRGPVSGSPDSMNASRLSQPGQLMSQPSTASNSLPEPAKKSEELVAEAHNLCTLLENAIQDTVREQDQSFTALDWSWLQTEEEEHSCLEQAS
The assay can be described thus: Inhibition of human IKKb at 18.6 nM by HotSpot assay relative to control.

The target in assay [7] is Tyrosine-protein kinase ABL2 (Homo sapiens) (UniProt P42684). Put plainly: Inhibition of human ABL2 at 18.6 nM by HotSpot assay relative to control.
The target in assay [8] is T4, Serine/threonine-protein kinase DCLK2 (Homo sapiens) (UniProt Q8N568).
T4 sequence (whole entry): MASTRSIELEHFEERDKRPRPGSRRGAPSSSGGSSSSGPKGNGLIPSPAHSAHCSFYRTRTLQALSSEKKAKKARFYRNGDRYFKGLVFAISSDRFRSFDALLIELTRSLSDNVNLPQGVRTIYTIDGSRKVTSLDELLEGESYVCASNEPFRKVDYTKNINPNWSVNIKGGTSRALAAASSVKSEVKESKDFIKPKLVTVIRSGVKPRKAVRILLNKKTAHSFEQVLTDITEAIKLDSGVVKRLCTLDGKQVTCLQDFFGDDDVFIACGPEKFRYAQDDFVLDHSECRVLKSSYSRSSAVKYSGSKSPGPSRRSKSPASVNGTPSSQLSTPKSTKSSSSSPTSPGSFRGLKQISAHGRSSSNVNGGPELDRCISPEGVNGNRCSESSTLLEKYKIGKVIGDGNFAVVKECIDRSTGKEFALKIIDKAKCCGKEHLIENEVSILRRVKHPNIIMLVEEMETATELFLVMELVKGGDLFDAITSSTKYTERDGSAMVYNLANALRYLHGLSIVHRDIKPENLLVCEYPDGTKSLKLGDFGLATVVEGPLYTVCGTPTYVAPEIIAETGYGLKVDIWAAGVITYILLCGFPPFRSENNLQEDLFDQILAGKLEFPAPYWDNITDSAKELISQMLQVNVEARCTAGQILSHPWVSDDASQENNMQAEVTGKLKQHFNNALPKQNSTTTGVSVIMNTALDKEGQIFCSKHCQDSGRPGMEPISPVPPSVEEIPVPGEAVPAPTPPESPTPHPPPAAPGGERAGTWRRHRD
The assay can be described thus: Inhibition of human DCAMKL2 at 18.6 nM by HotSpot assay relative to control.

Tyrosine-protein kinase ABL2 (Homo sapiens), sequence (P42684 whole entry): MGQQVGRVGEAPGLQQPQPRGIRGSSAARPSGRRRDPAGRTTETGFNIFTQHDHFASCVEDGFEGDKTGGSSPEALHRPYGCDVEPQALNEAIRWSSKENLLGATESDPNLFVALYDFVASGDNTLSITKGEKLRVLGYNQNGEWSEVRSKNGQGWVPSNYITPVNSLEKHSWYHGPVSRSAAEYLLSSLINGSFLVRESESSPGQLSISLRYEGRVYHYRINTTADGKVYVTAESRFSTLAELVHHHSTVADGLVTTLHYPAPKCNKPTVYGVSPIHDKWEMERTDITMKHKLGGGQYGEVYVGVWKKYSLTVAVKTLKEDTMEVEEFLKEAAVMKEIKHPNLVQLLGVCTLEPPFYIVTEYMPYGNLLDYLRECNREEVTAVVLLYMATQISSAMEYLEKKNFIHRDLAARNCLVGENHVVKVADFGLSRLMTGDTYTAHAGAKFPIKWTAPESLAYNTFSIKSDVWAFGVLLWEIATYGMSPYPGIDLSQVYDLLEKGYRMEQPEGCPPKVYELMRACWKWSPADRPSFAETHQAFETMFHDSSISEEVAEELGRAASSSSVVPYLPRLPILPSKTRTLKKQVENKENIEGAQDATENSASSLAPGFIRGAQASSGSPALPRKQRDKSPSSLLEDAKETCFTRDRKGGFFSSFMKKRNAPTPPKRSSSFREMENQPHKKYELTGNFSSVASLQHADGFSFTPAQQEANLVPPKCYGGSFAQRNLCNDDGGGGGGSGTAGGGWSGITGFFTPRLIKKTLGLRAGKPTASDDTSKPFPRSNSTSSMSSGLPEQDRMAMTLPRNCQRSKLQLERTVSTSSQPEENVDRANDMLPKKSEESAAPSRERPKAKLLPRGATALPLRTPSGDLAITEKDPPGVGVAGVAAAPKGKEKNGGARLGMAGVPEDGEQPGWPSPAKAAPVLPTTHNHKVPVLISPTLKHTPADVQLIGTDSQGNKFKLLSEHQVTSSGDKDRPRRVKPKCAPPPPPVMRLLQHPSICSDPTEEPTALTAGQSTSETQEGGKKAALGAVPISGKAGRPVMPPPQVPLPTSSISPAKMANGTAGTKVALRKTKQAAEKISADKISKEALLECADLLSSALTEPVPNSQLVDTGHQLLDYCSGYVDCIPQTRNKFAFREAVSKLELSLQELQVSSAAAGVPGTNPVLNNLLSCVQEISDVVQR
Calcium/calmodulin-dependent protein kinase type II subunit delta (Homo sapiens), sequence (Q13557 whole entry): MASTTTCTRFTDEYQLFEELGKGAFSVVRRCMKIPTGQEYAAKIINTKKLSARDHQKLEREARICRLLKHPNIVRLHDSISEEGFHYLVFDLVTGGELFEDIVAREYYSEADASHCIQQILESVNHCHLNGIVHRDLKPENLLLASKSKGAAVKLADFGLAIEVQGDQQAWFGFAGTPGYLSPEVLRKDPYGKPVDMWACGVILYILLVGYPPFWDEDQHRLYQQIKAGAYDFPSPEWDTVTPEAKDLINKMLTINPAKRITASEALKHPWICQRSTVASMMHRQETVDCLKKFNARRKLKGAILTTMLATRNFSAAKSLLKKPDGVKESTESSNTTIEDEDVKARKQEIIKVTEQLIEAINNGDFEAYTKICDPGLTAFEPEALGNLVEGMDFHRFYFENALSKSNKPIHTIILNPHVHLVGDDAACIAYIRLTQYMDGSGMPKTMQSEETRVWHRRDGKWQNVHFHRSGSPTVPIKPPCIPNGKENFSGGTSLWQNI

By inhibition is commonly meant the change of the read-out against control, counted positive when it falls. On to `C[C@@]1(C(=O)Nc2ccc(F)nc2)CCCN1c1nc(Nc2cc(C3CC3)n[nH]2)c2cccn2n1`, for which the inhibition in assay [1] was 3.74%; in assay [2] it was 3.26%; in assay [3], -0.76%; in assay [4], -2.72%; in assay [5], -1.25%.
In the case of `C[C@]1(O)C[C@@H](c2nc(-c3ccc4ccc(-c5ccccc5)nc4c3)c3c(N)nccn32)C1`, the inhibition in assay [6] is -2.87%; in assay [7], -0.1%; in assay [8], 10.8%.

The record behind these values is ChEMBL document CHEMBL5653615 (J Biol Chem, 2013).
